# Test results from US6761123B2, “INFUSION OF COMBUSTION GASES INTO BALLAST WATER PREFERABLY UNDER LESS THAN ATMOSPHERIC PRESSURE TO SYNERGISTICALLY KILL HARMFUL AQUATIC NUISANCE SPECIES BY SIMULTANEOUS HYPERCAPNIA, HYPOXIA AND ACIDIC PH LEVEL” (MH Systems, priority 2001, dated 2004).
# Legend:
# [1] = tested on: plankton sample (mainly copepods); test: Incubation of plankton sample (mainly copepods) in gas-equilibrated seawater; format: in vivo
# Description: (§1) The purpose of the experiments described here was to obtain data on the effects of “inert gas” on marine organisms. “Inert gas” of a mixture hereinafter called trimix—a commercially available gas mixture of […], 12% CO2 and 84% nitrogen resembling the gas generated by commercially used marine “inert gas generators”—was used. Both adult and young adult marine organisms were chosen for two reasons: a) to make the size of specimens amenable for the experimental setup and b) to raise the significance of possible effects since adults of a species are typically more tolerant of environmental changes than juveniles or larvae. All marine organisms were collected fresh from the coastal waters off La Jolla, Calif. and used immediately. They are, in that particular environment, not necessarily nuisance organisms. Some of the organisms might be so considered, however, should they be introduced into other waters. […]
# (§2) The schematic of an experimental setup in validation of the principles and methods of the present invention (and also, a miniature scale, the gaseous exchange system) is shown in FIG. 1. […] The oxygen concentrations were measured after the initial bubbling period using a Strathkelvin oxygen electrode with a Cameron instruments OM-200 oxygen analyzer. Values of pH were determined using a combination electrode and a Radiometer pH meter. […]
# barnacles = test: Incubation of barnacles in gas-equilibrated seawater, survival by withdrawal of feet when disturbed; format: in vivo; details: 1.5 l seawater, 22° C., equilibrated with gas
# Description: as §1, §2
# [2] = Oxygen concentration and pH of seawater bubbled with the gas; format: physicochemical
# Description: The schematic of an experimental setup in validation of the principles and methods of the present invention (and also, a miniature scale, the gaseous exchange system) is shown in FIG. 1. Three parallel incubations were done for each experiment. Several organisms were incubated in 1.5 l of seawater at 22° C. in large Erlenmeyer flasks. Each incubation was equilibrated with the respective gas using aquarium stones before any organisms were introduced. The aerobic control was bubbled from an aquarium pump for approximately 15 min and left open to the atmosphere after addition of specimens. An anaerobic incubation was bubbled with 99.998% nitrogen for 15 min. After introduction of the organisms, the bubbling was continued for another 10 min and then the container was closed with a rubber stopper or the bubbling was continued. The incubation in […] treated similarly except that the gas mix was used instead of nitrogen. The oxygen concentrations were measured after the initial bubbling period using a Strathkelvin oxygen electrode with a Cameron instruments OM-200 oxygen analyzer. Values of pH were determined using a combination electrode and a Radiometer pH meter.
# brittle stars = test: Incubation of brittle stars in gas-equilibrated seawater, survival by motile response; format: in vivo; details: transfer to aerobic conditions
# Description: as §1, §2
# mussels = test: Incubation of mussels in gas-equilibrated seawater, survival by shell closing on tactile stimulus; format: in vivo; details: after 95 min incubation
# Description: as §1, §2
structure (smiles),measurement,setting,value
N#N [nitrogen],time after which plankton (mainly copepods) stopped moving,"[1]; 1.5 l seawater, 22° C., equilibrated with gas",15 min
same,revival of plankton (mainly copepods),[1]; after they stopped moving,could not be revived
same,state of barnacles after incubation (withdrawal of feet when disturbed),barnacles,still behaved normally
same,oxygen concentration of the incubation,"[2]; measured after the initial bubbling period, oxygen electrode",non-detectable
same,pH value of the seawater bubbled with the gas,"[2]; seawater, normal pH 8, trimix value after initial 10 min of vigorous bubbling",8
same,movement of brittle stars after transfer into aerated water,brittle stars,started to move again
same,response of mussels to tactile stimuli (closing shells),mussels,still responded to tactile stimuli by closing their shells
same,state of mussel shells,mussels,open
